In one assay the test system is female Aedes aegypti. The experiment in a line: K&D module high-throughput feeding assay. The format is in vivo. The settings on record: for mean fed / mean probed: five females/cell. On the procedure: Highthrouhput Feeding Assay: The K&D module was developed at USDA for evaluating feeding deterrence and toxicity of candidate topical repellents against hemophagus arthropod vectors (Klun, J. A., and M. Debboun, J. Med. Entomol., 37: 177-181 (2000)). In the present study the K&D module was used as a highthrouhput screening tool to evaluate response of Ae. aegypti to attractant\feeding stimuli.
In vitro bioassays were conducted as described by Klun et. al., 2000. […] The three treatments were randomly assigned to consecutive cells in 2,6-cell reservoirs connected in series to a single water-bath pump; thus, 4 replicates could be tested/run.
Tests were performed in an Air Science USA hood, with an air movement velocity of approx. 110-120 ft./min., temperature of 25-27° C., and RH of 15-25%. A six-celled reservoir was connected to and heated by a constant-temperature (38° C.) water circulator (Lauda E100, Wobser GMGH and Co., Konigshofell, Germany).
Prior to each test, the upper surface of each reservoir was coated with a thin layer of high-vacuum silicone grease (Dow Corning Corp., Midland, Mich.), and the cells then filled (approx. 6 ml. capacity) or topped-off with the following: (1) expired human red blood cells suspended in citrate-phosphate-dextrose-adenine (CPDA) solution, not more than 1 month past expiration date, and to which 110 mg ATP/35 ml. blood-CPDA had been added on the day of testing; or (2) CPDA+ATP×10^−3, usually made up or diluted to 10^−3 ATP on the day of testing.
The filled cells were then covered with an Edicol collagen membrane strip (Devro, Sandy Run, S.C.), and then with a just-treated (110 μl of 4.54 nmol/μl treatment or control solution) organdy cloth strip (G Street Fabrics, Rockville, Md.).
Mosquitoes used in the tests were either Aedes aegypti (Liverpool) or Aedes albopictus (Asian Tiger mosquitoes (ATMs)). Ae. aegypti and Ae. albopictus were originally obtained from colonies at the Walter Reed Army Institute of Research (WRAIR), Silver Spring, Md., and were maintained in colonies at the Beltsville Agricultural Research Center, USDA, ARS, Beltsville, Md. The larvae were reared (Gerber, E. J., et al., Manual for mosquito rearing and experimental techniques, Am. Mosq. Control Assoc. Bull. 5 (revised), AMCA, Inc., Lake Charles, La. (1994)) by feeding larvae ground tropical fish pellets (Hikari Cichlid Gold Fish Food, Kamihata Fish Ind. Ltd., Himeji, Japan, www.hikari.info). Adults were held at 12:12 h (light:dark) photoperiod at 26° C. and 50% RH, and fed with a cotton pad moistened with 10% aqueous sucrose solution. For both species, adult mosquitoes used in the tests were between 5-10 days old, and were kept on water pads only for 24 hrs. prior to testing. Ae. aegypti used in a given test session were all loaded into K&D modules at one time, with five adult females/cell, and tested within I-2 hrs.
K&D modules containing five adult females/cell were placed over a Teflon separator atop each reservoir; the sliding floors opened allowing access to the treated organdy cloth and membrane-covered cell, and the number of mosquitoes biting (proboscis inserted through the cloth) and/or observed to be engorged within each cell at the end of a 3-5 min. exposure period was recorded. Mosquitoes were used only once in a test, and then frozen and discarded.
Only tests in which three or more females fed in the control cell were analyzed, as lower feeding rates are indicative of substandard feeding readiness of that group of mosquitoes.
Feeding/probing responses observed on control, standard, and experimental compound-treated cells were compared using an R-code statistical analysis (Chauhan, K. R., et al., Journal of Medical Entomology, 42: 643-646 (2005)).

The next assay deals with Ae. aegypti. The experiment in a line: Attract and kill bait evaluation in bucket. The format is in vivo, Aedes aegypti. To be noted: sugar gel containing pyriproxyfen spiked with 5 ml of Okoumal. The source says:
Attract and Kill Bait Evaluation: The assay system consists of a 1L plastic bucket covered with screened lid. A divider was placed to separate attract and kill bait from the control feeding. 50 Adult mosquitoes used in tests were between 5-10 days old, and were kept on water pads only for 24 hrs. prior to testing. Ae. aegypti used in each test session were all loaded into plastic bucket with attract and kill bait and control feeding formulation made with agarose gel containing sugar and color. In the preliminary semi-field trial, baits were charged with attractant candidates and deployed in to the either hut or tents. In one experiment 30 adult female Aedes aegypti mosquitoes were released, while in another trial at different location 20 adult female Aedes aegypti mosquitoes were released and observed for the attraction or attract-kill effect of the candidates. To incorporate invented field stable and long lasting attractants in the baits various putative devices were constructed and few of these attract and kill bait formulations were evaluated in the insectary and semi-field conditions. Data analysis: Attraction assay data were analyzed using the Wilcoxon two-sample test (PROC NPAR1WAY, SAS 1999) to examine the difference between the numbers of mosquitoes in control from treated baits. […]

In assay [1] the test system is Aedes albopictus, Ae. triseratus, and Ae. japonicus. The experiment in a line: Field study with oviposition cups. To be noted: 0 to 1% in oviposition cups, forested area, retrieved after 10 days. The format is in vivo. On the procedure: In the second field study different concentrations (0 to 1%) of Okoumal (1) were added to oviposition cups. Oviposition cups were placed in forested area that has known populations of Aedes albopictus, Ae. triseratus, and Ae. japonicus. Ovicups were retrieved after 10 days and accessed for the presence of mosquito eggs of different species.

With `CC1COC(C)(c2ccc3c(c2)C(C)(C)CCC3(C)C)O1` (centres unmarked) [Okoumal], the mean fed amounted to 3.6 in the assay with female Aedes aegypti (0.1% concentration), 2.8 in the assay on female Aedes aegypti (0.25% concentration), 3.5 in the assay on female Aedes aegypti (1% concentration) and 2.8 in the assay with female Aedes aegypti (5% concentration). Besides, the mean probed in the assay with female Aedes aegypti (0.1% concentration) was determined as 3.3; with female Aedes aegypti (0.25% concentration) it was 3; in the assay with female Aedes aegypti (1% concentration), 3.9; with female Aedes aegypti (5% concentration) it was 2.9. Besides, the “feeding compared with control, in words” value in the assay with female Aedes aegypti (four different concentrations, twenty replicates) is given as “consistent feeding on par with either control or better”. Further, in the assay on Ae. aegypti, the “mosquitoes in the bucket preferring feeding on treated gel over control sugar gel” value worked out at 90%. The “effect on numbers of oviposited eggs, in words” value in assay [1] was “significant effect of Okoumal concentration on numbers of oviposited eggs”.
